Test results as given in publication PMC9000012, “Amorphous Inclusion Complexes: Molecular Interactions of Hesperidin and Hesperetin with HP-Β-CD and Their Biological Effects” (International Journal of Molecular Sciences, 2022).
≈ marks a conversion by molar mass, not a printed value. Entries after “also recorded” stand apart in the source; their conditions may differ. Where two headings read alike, the source gives them in different places.

What was measured:
AChE = target: T1, AChE (Homo sapiens, UniProt P22303); experiment: Acetylcholinesterase (AChE) inhibition assay; type: biochemical
T1 construct: purchased Sigma Aldrich, Germany
T1 sequence (P22303 32-614): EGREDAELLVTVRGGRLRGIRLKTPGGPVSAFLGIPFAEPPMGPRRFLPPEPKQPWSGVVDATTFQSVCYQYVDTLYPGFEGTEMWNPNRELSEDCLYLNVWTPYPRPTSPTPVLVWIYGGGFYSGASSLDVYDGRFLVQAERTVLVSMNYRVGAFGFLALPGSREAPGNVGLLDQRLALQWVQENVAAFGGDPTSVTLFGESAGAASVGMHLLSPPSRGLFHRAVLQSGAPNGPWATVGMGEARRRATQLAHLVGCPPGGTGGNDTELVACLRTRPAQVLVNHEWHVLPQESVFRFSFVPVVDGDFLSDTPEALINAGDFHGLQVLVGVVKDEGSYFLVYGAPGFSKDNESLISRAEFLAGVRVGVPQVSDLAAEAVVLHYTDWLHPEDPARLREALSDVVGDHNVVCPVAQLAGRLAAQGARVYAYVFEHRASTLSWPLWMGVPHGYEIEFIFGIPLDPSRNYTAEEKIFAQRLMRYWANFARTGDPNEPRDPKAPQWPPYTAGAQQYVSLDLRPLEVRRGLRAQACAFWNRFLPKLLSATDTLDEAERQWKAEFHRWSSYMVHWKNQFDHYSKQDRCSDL
Description: (§1) To assess the activity of Hed, Het, and systems, the spectrometric method according to the outlined procedure was applied. A Multiskan GO 1510 (Thermo Fisher Scientific, Vantaa, Finland) plate reader was used for measurements of 96-well plates of the maximum volume of 300 μL. The hydrolysis of acetylthiocholine/butyrylthiocholine caused a color change. The absorbance of the enzymes was measured at a wavelength of 412 nm, 10 min after pipetting on a microplate. The reaction mixture containing 0.1 mL of 0.3 mM 5,5-dithio-bis-(2-nitrobenzoic acid) (DTNB, Sigma Aldrich, Germany), 10 mM NaCl and 2 mM MgCl2·6H2O solution, 0.575 mL 50 mM Tris-HCl buffer (pH = 8.0), 25 µL of 0.28 units/mL AChE/BChE (Sigma Aldrich, Germany), and 0.2 mL of the tested system was measured at a wavelength of 405 nm and at a temperature of 22 °C. The measurement was conducted after 20 min (BChE) or 60 min (AChE) after adding all ingredients into a microplate. The blank sample contained Tris-HCl buffer instead of the tested compounds. All samples were analyzed in six independent replicates. The inhibitory activity of each enzyme was calculated with the use of following equation: Inhibition ability (%)=100−Ap−Abp×100/Ak−Ab where Ak is absorbance of control, Ab is the blank of the control, Ap is the absorbance of the sample, and Abp is the blank of the sample.

BChE = target: T2, BChE (Homo sapiens, UniProt P06276); experiment: Butyrylcholinesterase (BChE) inhibition assay; type: biochemical
T2 construct: purchased Sigma Aldrich, Germany
T2 sequence (P06276 29-602, species assumed): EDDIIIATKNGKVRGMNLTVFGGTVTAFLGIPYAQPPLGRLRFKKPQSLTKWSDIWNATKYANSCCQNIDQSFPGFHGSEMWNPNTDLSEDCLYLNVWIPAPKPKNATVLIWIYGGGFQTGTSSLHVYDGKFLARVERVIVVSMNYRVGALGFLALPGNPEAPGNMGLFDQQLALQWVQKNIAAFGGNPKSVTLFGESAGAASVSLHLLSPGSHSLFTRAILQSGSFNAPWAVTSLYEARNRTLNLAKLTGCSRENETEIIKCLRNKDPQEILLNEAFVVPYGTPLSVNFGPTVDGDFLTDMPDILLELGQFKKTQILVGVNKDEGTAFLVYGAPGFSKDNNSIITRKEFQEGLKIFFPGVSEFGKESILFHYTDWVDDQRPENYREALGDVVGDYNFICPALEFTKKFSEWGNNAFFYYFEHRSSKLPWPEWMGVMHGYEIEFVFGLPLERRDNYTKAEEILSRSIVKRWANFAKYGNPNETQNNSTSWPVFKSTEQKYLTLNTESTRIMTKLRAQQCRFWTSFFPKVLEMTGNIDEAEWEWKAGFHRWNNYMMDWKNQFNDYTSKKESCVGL
Description: as §1

physchem = type: physicochemical; settings: for improvement in solubility: by amorphous inclusion complexes with HP-β-CD; for solubility at 24 h: thermodynamic from solid
Description: Concentrations of Hed and Het during solubility, dissolution rate, and permeability studies were measured by high-performance liquid chromatography with the DAD detector (HPLC-DAD). In this study, a Shimadzu Nexera (Shimadzu Corp., Kyoto, Japan) equipped with SCL-40 system controller; DGU-403 degassing unit; LC-40B XR solvent delivery module; SIL-40C XR auto sampler; CTO-40C column oven; SPD-M40 photo diode array detector, was used. For the stationary phase, a Dr. Maisch ReproSil-Pur Basic-C18 100 Å column, 5 µm particle size, 250 × 4.60 mm (Dr. Maisch, Ammerbuch-Entringen, Germany), was used. The mobile phase was methanol/0.1% acetic acid (65:35 v/v). The mobile phase was vacuum-filtered through a 0.45 µm nylon filter (Phenomenex, CA, USA). The experimental conditions were as follows: 0.9 mL·min^−1 flow rate, wavelength 280 nm for Hed and 288 nm for Het, and the column temperature at 30 °C. The injection volume differed depending on the assay. […] The method duration time was 10 min.
A total of 0.1 M HCl was obtained from the analytical weighed amount in accordance with the BASF SE recommendations. Phosphate buffer at pH 6.8 was prepared according to the following description: in a 1000 mL volumetric flask, we placed 250 mL of 0.2 N potassium dihydrogen phosphate solution, then added 112 mL of 0.2 N sodium hydroxide solution and filled the mixture up to 1000 mL with distilled water. High-quality pure water was prepared using a Direct-Q 3 UV purification system (Millipore, Molsheim, France, model Exil SA 67120).
An excess number of obtained systems and physical mixtures was placed in a 10 mL glass tube; then, 5.0 mL of medium (water, HCl 0.1 N or phosphate buffer (pH 6.8)) was added. All samples were mixed using a vortex mixer for 30 s and left at room temperature for 24 h. The obtained solutions were filtered through a 0.2 μm nylon membrane filter (Sigma-Aldrich, St. Louis, MO, USA) and analyzed for Hed and Het content using the developed and validated the HPLC method. The analysis was performed in triplicate.

[1] = PAMPA GIT permeability assay; type: in vitro ADME
Description: (§2) In vitro gastrointestinal (GIT) and blood–brain barrier (BBB) permeability was studied using the PAMPA (Parallel Artificial Membrane Permeability Assay) model. The sandwich consists of two 96-well microfilter plates. The PAMPA system contains two chambers: the donor at the bottom and the acceptor chamber at the top. The chambers are separated by a 120 μm thick microfilter disc coated with a 20% (w/v) dodecane solution of a lecithin mixture (Pion, Inc.). The analyzed samples were prepared by dissolving an excess amount of pure compound and systems in water. In addition, the pure compound was dissolved in DMSO. The donor solution was adjusted to pH ≈ 6.8 for GIT application and to pH ≈ 7.4 for BBB application using 0.5 M NaOH. The plates were combined and then incubated for 4 h for both models in a humidity-saturated atmosphere with the temperature set at 37 °C. The apparent permeability coefficient (Papp) was calculated according to the following equation: Papp=−ln(1−CA/Cequilibrium)/S×(1/VD+1/VA)×t where VD is donor volume; VA is acceptor volume; Cequilibrium is equilibrium concentration, Cequilibrium=CD×VD+CA×VA/VD+VA; S is membrane area; and t is incubation time (in seconds).

[2] = PAMPA BBB permeability assay; type: in vitro ADME; settings: for Papp at 4 h: PAMPA
Description: as §2

[3] = design: method as in doi:10.1016/j.lwt.2019.03.059; settings: cited from earlier work

COc1ccc([C@@H]2CC(=O)c3c(O)cc(O[C@@H]4O[C@H](CO[C@@H]5O[C@@H](C)[C@H](O)[C@@H](O)[C@H]5O)[C@@H](O)[C@H](O)[C@H]4O)cc3O2)cc1O [Hed, hesperidin]
AChE inhibition (AChE): 9.24 ± 0.81%
BChE inhibition (BChE): 13.86 ± 1.62%
improvement in solubility (physchem): over 1000 times
solubility at 24 h (physchem; pH 6.8, aqueous buffer): 9 ± 2 µg/mL (≈ 14.7 µM)
solubility at 24 h (physchem; simulated gastric fluid): 8 ± 3 µg/mL (≈ 13.1 µM)
solubility at 24 h (physchem; water): 9 ± 1 µg/mL (≈ 14.7 µM)
GIT PAMPA permeability, result in words ([1]; PAMPA): poorly absorbed
Papp at 4 h ([1]; PAMPA, pH 6.8): 0.0554 ×10⁻⁶ cm/s
Papp at 4 h ([2]; pH 7.4): 0.558 ×10⁻⁶ cm/s

COc1ccc([C@@H]2CC(=O)c3c(O)cc(O)cc3O2)cc1O [Het, hesperetin]
BChE inhibition (BChE): 12.96 ± 3.15%
improved solubility ([3]; Het complex with HP-β-CD): 467 fold
improved solubility ([3]; Het complex with β-CD): 30 fold
improvement in solubility (physchem): > 2000 times
solubility at 24 h (physchem; pH 6.8, aqueous buffer): 15 ± 0.2 µg/mL (≈ 49.6 µM)
solubility at 24 h (physchem; simulated gastric fluid): 6 ± 0.1 µg/mL (≈ 19.8 µM)
solubility at 24 h (physchem; water): 8 ± 0.1 µg/mL (≈ 26.5 µM)
Papp at 4 h ([1]; PAMPA, compound dissolved in DMSO, donor pH ≈ 6.8, 4 h, 37 °C, read-out: PAMPA GIT Papp): 9.61 ×10⁻⁶ cm/s
GIT PAMPA permeability, result in words ([1]; passive diffusion): readily absorbed; also recorded: well absorbed
Papp at 4 h ([2]; compound dissolved in DMSO, donor pH ≈ 7.4, 4 h, 37 °C, read-out: PAMPA BBB Papp): 5.58 ×10⁻⁶ cm/s
BBB PAMPA permeability, result in words ([2]; passive diffusion): easily able to pass this biological barrier; also recorded: crosses the blood–brain barrier
